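Tested at 5 concentrations; 48 h exposure; 96-well plates; endpoints linearly interpolated, else capped at highest concentration. GI50 is the concentration that inhibits growth by half. At the TGI there is no net growth.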
Columns and labels:
Test in all cases: inhibition of tumour cell growth, NCI panel, 48 h
SR leukemia = test system: SR leukemia
MDA-MB-231 breast = test system: MDA-MB-231 breast
PC-3 prostate = test system: PC-3 prostate
UACC-62 melanoma = test system: UACC-62 melanoma
HCT-15 colon = test system: HCT-15 colon
SK-MEL-5 melanoma = test system: SK-MEL-5 melanoma
NCI-H226 lung = test system: NCI-H226 lung
NCI-H23 lung = test system: NCI-H23 lung
T-47D breast = test system: T-47D breast
U251 CNS = test system: U251 CNS
HOP-62 NSCLC = test system: HOP-62 NSCLC
HL-60(TB) leukemia = test system: HL-60(TB) leukemia
A498 renal = test system: A498 renal
K-562 leukemia = test system: K-562 leukemia
A549 NSCLC = test system: A549 NSCLC
SNB-19 CNS = test system: SNB-19 CNS
SNB-75 CNS = test system: SNB-75 CNS
MALME-3M melanoma = test system: MALME-3M melanoma
DU-145 prostate = test system: DU-145 prostate
NCI-H460 lung = test system: NCI-H460 lung
RXF 393 renal = test system: RXF 393 renal
CAKI-1 renal = test system: CAKI-1 renal
SK-OV-3 ovarian = test system: SK-OV-3 ovarian
SK-MEL-2 melanoma = test system: SK-MEL-2 melanoma
HCC-2998 colon = test system: HCC-2998 colon
SW-620 colon = test system: SW-620 colon
MCF7 breast = test system: MCF7 breast
RPMI-8226 leukemia = test system: RPMI-8226 leukemia
CCRF-CEM leukemia = test system: CCRF-CEM leukemia
COLO 205 colon = test system: COLO 205 colon
EKVX NSCLC = test system: EKVX NSCLC
HOP-92 NSCLC = test system: HOP-92 NSCLC
SK-MEL-28 melanoma = test system: SK-MEL-28 melanoma
SF-268 CNS = test system: SF-268 CNS
HCT-116 colon = test system: HCT-116 colon
NCI-H522 lung = test system: NCI-H522 lung
MOLT-4 leukemia = test system: MOLT-4 leukemia
OVCAR-8 ovarian = test system: OVCAR-8 ovarian
TK-10 renal = test system: TK-10 renal
HT29 colon = test system: HT29 colon
UO-31 renal = test system: UO-31 renal
OVCAR-4 ovarian = test system: OVCAR-4 ovarian
OVCAR-5 ovarian = test system: OVCAR-5 ovarian
KM12 colon = test system: KM12 colon
SN12C renal = test system: SN12C renal
LOX IMVI melanoma = test system: LOX IMVI melanoma
MDA-MB-435 = test system: MDA-MB-435
SF-539 CNS = test system: SF-539 CNS
ACHN renal = test system: ACHN renal
SF-295 CNS = test system: SF-295 CNS
IGROV1 ovarian = test system: IGROV1 ovarian
UACC-257 melanoma = test system: UACC-257 melanoma
M14 melanoma = test system: M14 melanoma
BT-549 breast = test system: BT-549 breast
NCI/ADR-RES ovarian = test system: NCI/ADR-RES ovarian
786-0 renal = test system: 786-0 renal
HS 578T breast = test system: HS 578T breast

Compound `CS(=O)(=O)Nc1cc(-c2ccc3ncc(C#N)c(NCc4ccccc4F)c3c2)cnc1Cl` has a GI50 (SR leukemia) of 123 nM, a TGI (SR leukemia) of 3200 nM and a GI50 (MDA-MB-231 breast) of 343 nM. The TGI (MDA-MB-231 breast) was 3800 nM, the GI50 (PC-3 prostate) was 231 nM and the TGI (PC-3 prostate) was 10000 nM. It also gave a GI50 (UACC-62 melanoma) of 118 nM, a TGI (UACC-62 melanoma) of 1270 nM and a GI50 (HCT-15 colon) of 264 nM. It also gave a TGI (HCT-15 colon) of 11700 nM, a GI50 (SK-MEL-5 melanoma) of 163 nM and a TGI (SK-MEL-5 melanoma) of 336 nM. For the same compound, the GI50 (NCI-H226 lung) was 358 nM, the TGI (NCI-H226 lung) was 18200 nM and the GI50 (NCI-H23 lung) was 271 nM. It also gave a TGI (NCI-H23 lung) of 12300 nM, a GI50 (T-47D breast) of 108 nM and a TGI (T-47D breast) of 5840 nM. It also gave a GI50 (U251 CNS) of 155 nM, a TGI (U251 CNS) of 4270 nM and a GI50 (HOP-62 NSCLC) of 220 nM. The TGI (HOP-62 NSCLC) was 4710 nM, the GI50 (HL-60(TB) leukemia) was 253 nM and the TGI (HL-60(TB) leukemia) was 6390 nM. For the same compound, the GI50 (A498 renal) was 89.6 nM, the TGI (A498 renal) was 461 nM and the GI50 (K-562 leukemia) was 260 nM. For the same compound, the TGI (K-562 leukemia) was > 100000 nM, the GI50 (A549 NSCLC) was 442 nM and the TGI (A549 NSCLC) was 4000 nM. For the same compound, the GI50 (SNB-19 CNS) was 293 nM, the TGI (SNB-19 CNS) was 11500 nM and the GI50 (SNB-75 CNS) was 26.7 nM. The TGI (SNB-75 CNS) was 370 nM, the GI50 (MALME-3M melanoma) was 71.7 nM and the TGI (MALME-3M melanoma) was 475 nM. The GI50 (DU-145 prostate) was 302 nM, the TGI (DU-145 prostate) was 12100 nM and the GI50 (NCI-H460 lung) was 374 nM. It also gave a TGI (NCI-H460 lung) of 11500 nM, a GI50 (RXF 393 renal) of 93.4 nM and a TGI (RXF 393 renal) of 925 nM. For the same compound, the GI50 (CAKI-1 renal) was 131 nM, the TGI (CAKI-1 renal) was 1420 nM and the GI50 (SK-OV-3 ovarian) was 232 nM. For the same compound, the TGI (SK-OV-3 ovarian) was 1400 nM, the GI50 (SK-MEL-2 melanoma) was 91.9 nM and the TGI (SK-MEL-2 melanoma) was 320 nM. The GI50 (HCC-2998 colon) was 339 nM, the TGI (HCC-2998 colon) was 8320 nM and the GI50 (SW-620 colon) was 317 nM. For the same compound, the TGI (SW-620 colon) was 10800 nM, the GI50 (MCF7 breast) was 106 nM and the TGI (MCF7 breast) was 11500 nM. For the same compound, the GI50 (RPMI-8226 leukemia) was 189 nM, the TGI (RPMI-8226 leukemia) was 1290 nM and the GI50 (CCRF-CEM leukemia) was 153 nM. The TGI (CCRF-CEM leukemia) was 45800 nM, the GI50 (COLO 205 colon) was 271 nM and the TGI (COLO 205 colon) was 1200 nM. For the same compound, the GI50 (EKVX NSCLC) was 319 nM, the TGI (EKVX NSCLC) was 5480 nM and the GI50 (HOP-92 NSCLC) was 23.8 nM. The TGI (HOP-92 NSCLC) was 286 nM, the GI50 (SK-MEL-28 melanoma) was 176 nM and the TGI (SK-MEL-28 melanoma) was 4770 nM. It also gave a GI50 (SF-268 CNS) of 163 nM, a TGI (SF-268 CNS) of 3670 nM and a GI50 (HCT-116 colon) of 248 nM. It also gave a TGI (HCT-116 colon) of 1500 nM, a GI50 (NCI-H522 lung) of 335 nM and a TGI (NCI-H522 lung) of 8140 nM. For the same compound, the GI50 (MOLT-4 leukemia) was 190 nM, the TGI (MOLT-4 leukemia) was 2540 nM and the GI50 (OVCAR-8 ovarian) was 328 nM. For the same compound, the TGI (OVCAR-8 ovarian) was 12200 nM, the GI50 (TK-10 renal) was 100 nM and the TGI (TK-10 renal) was 976 nM. For the same compound, the GI50 (HT29 colon) was 324 nM, the TGI (HT29 colon) was 5490 nM and the GI50 (UO-31 renal) was 154 nM. The GI50 (OVCAR-4 ovarian) was 262 nM, the TGI (OVCAR-4 ovarian) was 6050 nM and the GI50 (OVCAR-5 ovarian) was 386 nM. For the same compound, the TGI (OVCAR-5 ovarian) was 9740 nM, the GI50 (KM12 colon) was 280 nM and the TGI (KM12 colon) was 3860 nM. For the same compound, the GI50 (SN12C renal) was 235 nM, the TGI (SN12C renal) was > 64000 nM and the GI50 (LOX IMVI melanoma) was 191 nM. For the same compound, the TGI (LOX IMVI melanoma) was 1010 nM, the GI50 (MDA-MB-435) was 251 nM and the TGI (MDA-MB-435) was 10600 nM. It also gave a GI50 (SF-539 CNS) of 190 nM, a TGI (SF-539 CNS) of 1840 nM and a GI50 (ACHN renal) of 436 nM. For the same compound, the TGI (ACHN renal) was > 52500 nM, the GI50 (SF-295 CNS) was 197 nM and the TGI (SF-295 CNS) was 1920 nM. For the same compound, the GI50 (IGROV1 ovarian) was 108 nM, the TGI (IGROV1 ovarian) was 876 nM and the GI50 (UACC-257 melanoma) was 244 nM. The TGI (UACC-257 melanoma) was 4940 nM, the GI50 (M14 melanoma) was 243 nM and the TGI (M14 melanoma) was 7010 nM. For the same compound, the GI50 (BT-549 breast) was 60.9 nM, the TGI (BT-549 breast) was 623 nM and the GI50 (NCI/ADR-RES ovarian) was 1450 nM. For the same compound, the TGI (NCI/ADR-RES ovarian) was 29500 nM, the GI50 (786-0 renal) was 308 nM and the TGI (786-0 renal) was 9520 nM. For the same compound, the GI50 (HS 578T breast) was 49.8 nM and the TGI (HS 578T breast) was 445 nM.

Reference: PubChem BioAssay (NCI)
